From ChEMBL document CHEMBL5696441 (Nat Chem Biol, 2011)

Key:
[1] = molecular target: Mitogen-activated protein kinase kinase kinase 10 (Homo sapiens) (UniProt Q02779); assay: Inhibition of human MAP3K10 assessed as residual activity at 1 uM using histon H2B as substrate in presence of 33P-ATP by ProQinase assay relative to control
[2] = molecular target: Serine/threonine-protein kinase PLK2 (Homo sapiens) (UniProt Q9NYY3); assay: Inhibition of PLK2 (unknown origin) assessed as remaining activity at 1 uM by Kinome scan method relative to control
[3] = test system: Proto-oncogene tyrosine-protein kinase receptor Ret (Homo sapiens), P07949 [V804L]; assay: Inhibition of human RET V804L mutant assessed as residual activity at 1 uM using polyEY as substrate in presence of 33P-ATP by ProQinase assay relative to control
[4] = molecular target: Mitogen-activated protein kinase kinase kinase 3 (Homo sapiens) (UniProt Q99759); assay: Inhibition of human MEKK3 assessed as residual activity at 1 uM using casein as substrate in presence of 33P-ATP by ProQinase assay relative to control
[5] = molecular target: High affinity nerve growth factor receptor (Homo sapiens) (UniProt P04629); assay: Inhibition of human TRKA assessed as residual activity at 1 uM using PolyEY as substrate in presence of 33P-ATP by ProQinase assay relative to control
[6] = test system: Tyrosine-protein kinase ABL1 (Homo sapiens), P00519 [F317I]; assay: Inhibition of human ABL1 F317I mutant assessed as residual activity at 1 uM using Poly(Ala,Glu,Lys,Tyr)6:2:5:1 as substrate in presence of 33P-ATP by ProQinase assay relative to control
[7] = test system: Proto-oncogene tyrosine-protein kinase receptor Ret (Homo sapiens), P07949 [Y791F]; assay: Inhibition of human RET Y791F mutant assessed as residual activity at 1 uM using polyEY as substrate in presence of 33P-ATP by ProQinase assay relative to control
[8] = molecular target: Cyclin-dependent kinase 5/CDK5 activator 1 (Homo sapiens) (UniProt Q00535+Q15078); assay: Inhibition of human CDK5/p25NCK assessed as residual activity at 1 uM using RBER-CHKtide as substrate in presence of 33P-ATP by ProQinase assay relative to control; assay type: protein-complex assay
[9] = molecular target: Serine/threonine-protein kinase MRCK beta (Homo sapiens) (UniProt Q9Y5S2); assay: Inhibition of human CDC42BPB assessed as residual activity at 1 uM using RB-S6P as substrate in presence of 33P-ATP by ProQinase assay relative to control
[10] = molecular target: Mitogen-activated protein kinase kinase kinase 13 (Homo sapiens) (UniProt O43283); assay: Inhibition of LZK (unknown origin) assessed as remaining activity at 1 uM by Kinome scan method relative to control
[11] = molecular target: Dual serine/threonine and tyrosine protein kinase (Homo sapiens) (UniProt Q6XUX3); assay: Inhibition of human RIPK5 assessed as residual activity at 1 uM using RBER-CHKtide as substrate in presence of 33P-ATP by ProQinase assay relative to control
[12] = test system: Tyrosine-protein kinase ABL1 (Homo sapiens), P00519 [M351T]; assay: Inhibition of human ABL1 M351T mutant assessed as residual activity at 1 uM using Poly(Ala,Glu,Lys,Tyr)6:2:5:1 as substrate in presence of 33P-ATP by ProQinase assay relative to control
[13] = molecular target: Eukaryotic translation initiation factor 2-alpha kinase 1 (Homo sapiens) (UniProt Q9BQI3); assay: Inhibition of human HRI assessed as residual activity at 1 uM using casein as substrate in presence of 33P-ATP by ProQinase assay relative to control
[14] = molecular target: Mitogen-activated protein kinase 15 (Homo sapiens) (UniProt Q8TD08); assay: Inhibition of ERK8 (unknown origin) assessed as remaining activity at 1 uM by Kinome scan method relative to control
[15] = molecular target: Tyrosine-protein kinase JAK2 (Homo sapiens) (UniProt O60674); assay: Inhibition of human JAK2 assessed as residual activity at 1 uM using poly(Ala,Glu,Lys,Tyr)6:2:5:1 as substrate in presence of 33P-ATP by ProQinase assay relative to control
[16] = molecular target: Fibroblast growth factor receptor 1 (Homo sapiens) (UniProt P11362); assay: Inhibition of human FGFR1 assessed as residual activity at 1 uM using PolyEY as substrate in presence of 33P-ATP by ProQinase assay relative to control
[17] = molecular target: Protein-tyrosine kinase 6 (Homo sapiens) (UniProt Q13882); assay: Inhibition of human BRK assessed as residual activity at 1 uM using PolyEY as substrate in presence of 33P-ATP by ProQinase assay relative to control
[18] = test system: Epidermal growth factor receptor (Homo sapiens), P00533 [L861Q]; assay: Inhibition of human EGFR L861Q mutant assessed as residual activity at 1 uM using PolyEY as substrate in presence of 33P-ATP by ProQinase assay relative to control
[19] = test system: Leucine-rich repeat serine/threonine-protein kinase 2 (Homo sapiens), Q5S007 [G2019S]; assay: Inhibition of human LRRK2 G2019S mutant assessed as residual activity at 1 uM using RBER-GSK3(14-27) as substrate in presence of 33P-ATP by ProQinase assay relative to control
[20] = Anti-inflammatory activity against human derived medium respond PBMC cells assessed as inhibition in stimulated IL-17A cytokine release incubated for 2 hrs in the presence of LPS/SEB/aCD28 by Luminex based sandwich immunoassay; assay type: functional, cell-based
[21] = molecular target: Glycogen synthase kinase-3 beta (Homo sapiens) (UniProt P49841); assay: Inhibition of GSK3beta (unknown origin) assessed as remaining activity at 1 uM by Kinome scan method relative to control
[22] = molecular target: Discoidin domain-containing receptor 2 (Homo sapiens) (UniProt Q16832); assay: Inhibition of human DDR2 assessed as residual activity at 1 uM using poly(Ala,Glu,Lys,Tyr)6:2:5:1 as substrate in presence of 33P-ATP by ProQinase assay relative to control

Chain of Mitogen-activated protein kinase kinase kinase 3 (Homo sapiens) (Q99759 whole entry): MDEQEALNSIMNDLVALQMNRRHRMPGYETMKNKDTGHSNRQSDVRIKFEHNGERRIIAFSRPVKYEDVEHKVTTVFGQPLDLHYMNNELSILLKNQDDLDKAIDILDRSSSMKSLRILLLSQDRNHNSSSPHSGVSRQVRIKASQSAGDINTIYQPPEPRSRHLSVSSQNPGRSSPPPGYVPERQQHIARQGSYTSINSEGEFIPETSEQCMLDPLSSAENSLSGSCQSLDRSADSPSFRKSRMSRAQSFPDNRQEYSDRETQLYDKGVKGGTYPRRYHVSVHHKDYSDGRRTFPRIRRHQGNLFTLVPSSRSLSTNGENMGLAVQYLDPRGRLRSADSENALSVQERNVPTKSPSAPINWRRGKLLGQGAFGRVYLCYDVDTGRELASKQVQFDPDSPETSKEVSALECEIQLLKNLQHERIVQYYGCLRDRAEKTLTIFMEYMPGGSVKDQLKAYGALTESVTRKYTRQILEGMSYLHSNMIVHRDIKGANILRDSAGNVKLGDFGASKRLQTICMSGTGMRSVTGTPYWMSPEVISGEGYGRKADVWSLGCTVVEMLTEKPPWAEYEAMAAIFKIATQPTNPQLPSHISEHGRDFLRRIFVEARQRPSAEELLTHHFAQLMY
Chain of Proto-oncogene tyrosine-protein kinase receptor Ret (Homo sapiens), P07949 [Y791F] (P07949 whole entry Y791F): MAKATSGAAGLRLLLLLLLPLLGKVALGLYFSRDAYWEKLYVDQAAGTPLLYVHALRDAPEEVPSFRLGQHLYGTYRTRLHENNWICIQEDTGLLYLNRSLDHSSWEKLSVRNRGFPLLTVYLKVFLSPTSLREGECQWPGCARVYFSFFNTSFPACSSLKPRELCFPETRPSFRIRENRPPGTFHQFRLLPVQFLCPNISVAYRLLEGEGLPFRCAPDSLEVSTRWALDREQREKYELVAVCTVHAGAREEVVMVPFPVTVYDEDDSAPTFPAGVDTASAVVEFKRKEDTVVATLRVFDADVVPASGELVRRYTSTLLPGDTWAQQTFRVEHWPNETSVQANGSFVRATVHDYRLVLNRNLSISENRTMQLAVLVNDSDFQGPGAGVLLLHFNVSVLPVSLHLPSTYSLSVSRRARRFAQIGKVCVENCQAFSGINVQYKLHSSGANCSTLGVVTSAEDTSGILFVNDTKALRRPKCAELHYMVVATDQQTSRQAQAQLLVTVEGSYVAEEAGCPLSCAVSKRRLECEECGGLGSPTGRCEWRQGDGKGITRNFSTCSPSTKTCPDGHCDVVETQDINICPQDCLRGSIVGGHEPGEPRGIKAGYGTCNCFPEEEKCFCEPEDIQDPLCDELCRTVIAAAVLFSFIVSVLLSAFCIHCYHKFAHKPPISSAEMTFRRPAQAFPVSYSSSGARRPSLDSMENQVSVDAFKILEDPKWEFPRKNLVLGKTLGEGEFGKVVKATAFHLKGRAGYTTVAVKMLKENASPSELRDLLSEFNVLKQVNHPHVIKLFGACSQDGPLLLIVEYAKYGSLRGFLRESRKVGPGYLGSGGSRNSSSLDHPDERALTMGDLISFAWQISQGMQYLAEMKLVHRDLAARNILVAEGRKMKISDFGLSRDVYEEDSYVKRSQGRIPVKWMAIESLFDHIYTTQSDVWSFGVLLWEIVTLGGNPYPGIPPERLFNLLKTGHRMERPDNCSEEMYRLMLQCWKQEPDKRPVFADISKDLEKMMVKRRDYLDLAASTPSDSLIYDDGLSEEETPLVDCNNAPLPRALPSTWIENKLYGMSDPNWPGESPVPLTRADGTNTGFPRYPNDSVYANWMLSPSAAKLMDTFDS
Chain of Leucine-rich repeat serine/threonine-protein kinase 2 (Homo sapiens), Q5S007 [G2019S] (Q5S007 whole entry G2019S): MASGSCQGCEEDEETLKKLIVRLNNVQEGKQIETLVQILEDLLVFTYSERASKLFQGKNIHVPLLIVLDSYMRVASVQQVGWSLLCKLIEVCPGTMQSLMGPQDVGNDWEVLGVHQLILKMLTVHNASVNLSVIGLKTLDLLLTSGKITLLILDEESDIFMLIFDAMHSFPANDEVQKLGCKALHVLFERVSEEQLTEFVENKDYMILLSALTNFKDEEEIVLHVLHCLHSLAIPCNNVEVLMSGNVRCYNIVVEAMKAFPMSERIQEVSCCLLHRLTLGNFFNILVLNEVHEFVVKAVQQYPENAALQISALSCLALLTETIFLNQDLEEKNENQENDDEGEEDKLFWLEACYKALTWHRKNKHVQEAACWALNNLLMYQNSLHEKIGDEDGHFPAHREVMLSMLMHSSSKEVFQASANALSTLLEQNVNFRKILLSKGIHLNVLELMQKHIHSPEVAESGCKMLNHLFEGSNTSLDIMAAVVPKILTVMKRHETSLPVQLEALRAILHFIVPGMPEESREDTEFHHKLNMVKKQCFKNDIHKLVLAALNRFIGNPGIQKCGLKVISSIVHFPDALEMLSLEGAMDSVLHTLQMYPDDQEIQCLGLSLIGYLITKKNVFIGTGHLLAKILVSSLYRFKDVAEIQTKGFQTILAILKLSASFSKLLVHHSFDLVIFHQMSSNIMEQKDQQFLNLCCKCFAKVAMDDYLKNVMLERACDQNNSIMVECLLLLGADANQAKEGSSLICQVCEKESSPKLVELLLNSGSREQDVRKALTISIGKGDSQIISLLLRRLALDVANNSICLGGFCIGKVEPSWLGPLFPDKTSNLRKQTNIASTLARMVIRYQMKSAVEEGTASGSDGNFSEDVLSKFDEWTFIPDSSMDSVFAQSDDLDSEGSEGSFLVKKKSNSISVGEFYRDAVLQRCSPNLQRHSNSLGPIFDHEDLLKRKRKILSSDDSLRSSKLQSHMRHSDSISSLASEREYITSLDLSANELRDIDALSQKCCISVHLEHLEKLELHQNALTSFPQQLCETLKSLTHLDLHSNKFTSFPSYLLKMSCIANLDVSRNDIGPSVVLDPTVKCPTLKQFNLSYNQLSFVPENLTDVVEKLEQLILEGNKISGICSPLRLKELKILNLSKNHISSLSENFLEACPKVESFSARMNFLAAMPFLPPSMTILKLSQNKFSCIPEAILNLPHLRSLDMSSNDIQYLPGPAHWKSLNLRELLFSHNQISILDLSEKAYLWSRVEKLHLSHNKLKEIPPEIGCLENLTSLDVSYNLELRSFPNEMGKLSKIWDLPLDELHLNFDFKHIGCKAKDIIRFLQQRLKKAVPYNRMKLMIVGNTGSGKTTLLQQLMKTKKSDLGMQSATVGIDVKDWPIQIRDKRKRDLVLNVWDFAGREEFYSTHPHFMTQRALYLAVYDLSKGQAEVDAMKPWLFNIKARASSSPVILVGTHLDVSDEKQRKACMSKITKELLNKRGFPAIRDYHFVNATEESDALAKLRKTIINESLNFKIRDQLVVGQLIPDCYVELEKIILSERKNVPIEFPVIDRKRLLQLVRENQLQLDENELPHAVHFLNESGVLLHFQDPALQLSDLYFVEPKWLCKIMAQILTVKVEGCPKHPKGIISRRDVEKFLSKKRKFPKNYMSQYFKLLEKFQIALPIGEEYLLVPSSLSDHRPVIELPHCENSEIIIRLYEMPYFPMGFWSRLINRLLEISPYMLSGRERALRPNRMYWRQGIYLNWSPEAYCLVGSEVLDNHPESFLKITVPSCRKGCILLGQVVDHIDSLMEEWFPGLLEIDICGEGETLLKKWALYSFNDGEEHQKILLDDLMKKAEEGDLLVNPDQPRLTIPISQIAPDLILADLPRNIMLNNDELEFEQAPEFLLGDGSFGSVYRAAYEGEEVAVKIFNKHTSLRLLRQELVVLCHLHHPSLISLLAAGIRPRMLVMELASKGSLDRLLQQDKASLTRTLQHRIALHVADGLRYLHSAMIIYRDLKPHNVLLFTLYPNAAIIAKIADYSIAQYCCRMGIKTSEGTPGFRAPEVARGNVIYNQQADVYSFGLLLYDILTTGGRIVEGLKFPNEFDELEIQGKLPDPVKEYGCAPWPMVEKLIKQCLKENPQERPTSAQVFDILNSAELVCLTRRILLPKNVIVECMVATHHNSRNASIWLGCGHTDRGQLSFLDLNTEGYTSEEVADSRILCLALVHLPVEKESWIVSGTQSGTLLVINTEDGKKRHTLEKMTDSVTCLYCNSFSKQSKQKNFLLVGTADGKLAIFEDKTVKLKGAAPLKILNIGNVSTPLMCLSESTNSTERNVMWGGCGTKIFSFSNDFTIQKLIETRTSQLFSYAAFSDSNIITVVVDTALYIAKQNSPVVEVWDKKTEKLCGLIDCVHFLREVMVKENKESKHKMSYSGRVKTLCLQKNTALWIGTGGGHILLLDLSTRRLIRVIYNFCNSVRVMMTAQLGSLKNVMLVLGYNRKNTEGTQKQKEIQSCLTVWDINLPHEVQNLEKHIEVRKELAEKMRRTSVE
Chain of High affinity nerve growth factor receptor (Homo sapiens) (P04629 33-796 limits assumed): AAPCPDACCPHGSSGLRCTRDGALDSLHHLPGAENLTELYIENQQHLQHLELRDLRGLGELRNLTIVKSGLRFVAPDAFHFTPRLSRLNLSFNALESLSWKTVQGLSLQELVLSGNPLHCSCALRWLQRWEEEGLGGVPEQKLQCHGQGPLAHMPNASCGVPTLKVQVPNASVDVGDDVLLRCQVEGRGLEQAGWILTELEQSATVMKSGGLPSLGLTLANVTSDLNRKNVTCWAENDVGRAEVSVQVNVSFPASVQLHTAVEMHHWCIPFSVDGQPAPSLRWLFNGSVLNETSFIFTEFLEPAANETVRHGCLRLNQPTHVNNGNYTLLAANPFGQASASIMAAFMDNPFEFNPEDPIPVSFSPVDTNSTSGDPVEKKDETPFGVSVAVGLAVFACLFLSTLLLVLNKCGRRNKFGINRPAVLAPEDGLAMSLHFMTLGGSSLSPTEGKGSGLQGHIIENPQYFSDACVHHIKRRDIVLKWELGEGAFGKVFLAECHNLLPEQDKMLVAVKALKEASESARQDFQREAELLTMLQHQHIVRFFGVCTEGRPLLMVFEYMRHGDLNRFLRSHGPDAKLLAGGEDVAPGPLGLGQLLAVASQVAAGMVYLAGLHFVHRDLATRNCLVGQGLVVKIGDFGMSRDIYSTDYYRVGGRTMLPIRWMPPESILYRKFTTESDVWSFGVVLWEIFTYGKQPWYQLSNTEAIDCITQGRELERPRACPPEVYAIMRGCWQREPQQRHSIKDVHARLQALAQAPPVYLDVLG
Chain of Proto-oncogene tyrosine-protein kinase receptor Ret (Homo sapiens), P07949 [V804L] (P07949 whole entry V804L): as the sequence (P07949 whole entry Y791F) above, with F791Y, V804L counted along it

O=C1c2ccc(Nc3ccc(F)cc3F)cc2CCc2ccc(OC[C@H](O)CO)cc21 [Skepinone-L]
Activity [1]: 101% | Activity [2]: 100% | Activity [3]: 115% | Activity [4]: 96% | Activity [5]: 111% | Activity [6]: 102% | Activity [7]: 141% | Activity [8]: 99% | Activity [9]: 83% | Activity [10]: 100% | Activity [11]: 95% | Activity [12]: 102% | Activity [13]: 106% | Activity [14]: 99% | Activity [15]: 90% | Activity [16]: 117% | Activity [17]: 84% | Activity [18]: 94% | Activity [19]: 77% | IC50 [20]: 7.85 µM | Activity [21]: 97% | Activity [22]: 102%
